Laboratory results taken from ChEMBL document CHEMBL5724806, “Unraveling interindividual differences and functional consequences of gut microbial metabolism of immunosuppressants” (2024).

Key:
Assay type in all cases: ADME
[1] = (§1) The drug is tested on Bacteroides fragilis strain: DSM2151 for biotransformation under anaerobic condition. The drug concentrations were measured over 6 timepoints collected between 0 and 12 hours of incubation by liquid-chromatography-coupled mass spectrometry (LC–MS); design: dose 5 uM, timepoint 0, 1.5, 3, 6, 9, 12 hours; details: 5 µM
[2] = The drug is tested on Bacteroides ovatus strain: ATCC 8483 for biotransformation under anaerobic condition. The drug concentrations were measured over 6 timepoints collected between 0 and 12 hours of incubation by liquid-chromatography-coupled mass spectrometry (LC–MS); design: dose 5 uM, timepoint 0, 1.5, 3, 6, 9, 12 hours; details: 5 µM
[3] = The drug is tested on Bacteroides thetaiotaomicron strain: DSM2079 for biotransformation under anaerobic condition. The drug concentrations were measured over 6 timepoints collected between 0 and 12 hours of incubation by liquid-chromatography-coupled mass spectrometry (LC–MS); design: dose 5 uM, timepoint 0, 1.5, 3, 6, 9, 12 hours; details: 5 µM
[4] = The drug is tested on Bacteroides uniformis strain: DSM6597 for biotransformation under anaerobic condition. The drug concentrations were measured over 6 timepoints collected between 0 and 12 hours of incubation by liquid-chromatography-coupled mass spectrometry (LC–MS); design: dose 5 uM, timepoint 0, 1.5, 3, 6, 9, 12 hours; details: 5 µM
[5] = The drug is tested on Bacteroides vulgatus strain: DSM1447 for biotransformation under anaerobic condition. The drug concentrations were measured over 6 timepoints collected between 0 and 12 hours of incubation by liquid-chromatography-coupled mass spectrometry (LC–MS); design: dose 5 uM, timepoint 0, 1.5, 3, 6, 9, 12 hours; details: phocaeicola vulgatus, 5 µM
[6] = The drug is tested on Capnocytophaga ochracea strain: DSM7271 for biotransformation under anaerobic condition. The drug concentrations were measured over 6 timepoints collected between 0 and 12 hours of incubation by liquid-chromatography-coupled mass spectrometry (LC–MS); design: dose 5 uM, timepoint 0, 1.5, 3, 6, 9, 12 hours; details: 5 µM
[7] = The drug is tested on Parabacteroides distasonis strain: DSM20701 for biotransformation under anaerobic condition. The drug concentrations were measured over 6 timepoints collected between 0 and 12 hours of incubation by liquid-chromatography-coupled mass spectrometry (LC–MS); design: dose 5 uM, timepoint 0, 1.5, 3, 6, 9, 12 hours; details: 5 µM
[8] = The drug is tested on Eubacterium rectale strain: DSM17629 for biotransformation under anaerobic condition. The drug concentrations were measured over 6 timepoints collected between 0 and 12 hours of incubation by liquid-chromatography-coupled mass spectrometry (LC–MS); design: dose 5 uM, timepoint 0, 1.5, 3, 6, 9, 12 hours; details: agathobacter rectalis, 5 µM
[9] = The drug is tested on Faecalibacterium prausnitzii strain: DSM17677 for biotransformation under anaerobic condition. The drug concentrations were measured over 6 timepoints collected between 0 and 12 hours of incubation by liquid-chromatography-coupled mass spectrometry (LC–MS); design: dose 5 uM, timepoint 0, 1.5, 3, 6, 9, 12 hours; details: faecalibacterium duncaniae, 5 µM
[10] = The drug is tested on Lactobacillus paracasei strain: ATCC27092 for biotransformation under anaerobic condition. The drug concentrations were measured over 6 timepoints collected between 0 and 12 hours of incubation by liquid-chromatography-coupled mass spectrometry (LC–MS); design: dose 5 uM, timepoint 0, 1.5, 3, 6, 9, 12 hours; details: lacticaseibacillus paracasei, 5 µM
[11] = The drug is tested on Lactobacillus reuteri strain: DSM20016 for biotransformation under anaerobic condition. The drug concentrations were measured over 6 timepoints collected between 0 and 12 hours of incubation by liquid-chromatography-coupled mass spectrometry (LC–MS); design: dose 5 uM, timepoint 0, 1.5, 3, 6, 9, 12 hours; details: limosilactobacillus reuteri, 5 µM
[12] = The drug is tested on Lactobacillus ruminis strain: ATCC25644 for biotransformation under anaerobic condition. The drug concentrations were measured over 6 timepoints collected between 0 and 12 hours of incubation by liquid-chromatography-coupled mass spectrometry (LC–MS); design: dose 5 uM, timepoint 0, 1.5, 3, 6, 9, 12 hours; details: ligilactobacillus ruminis, 5 µM
[13] = The drug is tested on Streptococcus anginosus strain: DSM20563 for biotransformation under anaerobic condition. The drug concentrations were measured over 6 timepoints collected between 0 and 12 hours of incubation by liquid-chromatography-coupled mass spectrometry (LC–MS); design: dose 5 uM, timepoint 0, 1.5, 3, 6, 9, 12 hours; details: 5 µM
[14] = (§2) The drug is tested on Bifidobacterium longum strain: DSM20088 for biotransformation under microaerobic condition. The drug concentrations were measured over 6 timepoints collected between 0 and 12 hours of incubation by liquid-chromatography-coupled mass spectrometry (LC–MS); design: dose 5 uM, timepoint 0, 1.5, 3, 6, 9, 12 hours; details: 5 µM
[15] = The drug is tested on Gemella morbillorum strain: DSM20572 for biotransformation under microaerobic condition. The drug concentrations were measured over 6 timepoints collected between 0 and 12 hours of incubation by liquid-chromatography-coupled mass spectrometry (LC–MS); design: dose 5 uM, timepoint 0, 1.5, 3, 6, 9, 12 hours; details: 5 µM
[16] = The drug is tested on Lactobacillus gasseri strain: DSM20243 for biotransformation under microaerobic condition. The drug concentrations were measured over 6 timepoints collected between 0 and 12 hours of incubation by liquid-chromatography-coupled mass spectrometry (LC–MS); design: dose 5 uM, timepoint 0, 1.5, 3, 6, 9, 12 hours; details: 5 µM
[17] = The drug is tested on Streptococcus anginosus strain: DSM20563 for biotransformation under microaerobic condition. The drug concentrations were measured over 6 timepoints collected between 0 and 12 hours of incubation by liquid-chromatography-coupled mass spectrometry (LC–MS); design: dose 5 uM, timepoint 0, 1.5, 3, 6, 9, 12 hours; details: 5 µM
[18] = The drug is tested on Streptococcus mitis strain: DSM12643 for biotransformation under microaerobic condition. The drug concentrations were measured over 6 timepoints collected between 0 and 12 hours of incubation by liquid-chromatography-coupled mass spectrometry (LC–MS); design: dose 5 uM, timepoint 0, 1.5, 3, 6, 9, 12 hours; details: 5 µM
[19] = The drug is tested on Streptococcus salivarius strain: DSM20560 for biotransformation under microaerobic condition. The drug concentrations were measured over 6 timepoints collected between 0 and 12 hours of incubation by liquid-chromatography-coupled mass spectrometry (LC–MS); design: dose 5 uM, timepoint 0, 1.5, 3, 6, 9, 12 hours; details: 5 µM
[20] = as §1, with “the gut metagenome community of A-02 with ENA study accession number: PRJEB31790” for “Bacteroides fragilis strain: DSM2151”, “7” for “6”; design: dose 5 uM, timepoint 0, 0.75, 1.5, 3, 6, 9, 12 hours; details: 5 µM
[21] = as §1, with “the gut metagenome community of A-03 with ENA study accession number: PRJEB31790” for “Bacteroides fragilis strain: DSM2151”, “7” for “6”; design: dose 5 uM, timepoint 0, 0.75, 1.5, 3, 6, 9, 12 hours; details: 5 µM
[22] = as §1, with “the gut metagenome community of A-07 with ENA study accession number: PRJEB31790” for “Bacteroides fragilis strain: DSM2151”, “7” for “6”; design: dose 5 uM, timepoint 0, 0.75, 1.5, 3, 6, 9, 12 hours; details: 5 µM
[23] = as §1, with “the gut metagenome community of P-03 with ENA study accession number: PRJEB31790” for “Bacteroides fragilis strain: DSM2151”, “7” for “6”; design: dose 5 uM, timepoint 0, 0.75, 1.5, 3, 6, 9, 12 hours; details: 5 µM
[24] = as §1, with “the gut metagenome community of P-04 with ENA study accession number: PRJEB31790” for “Bacteroides fragilis strain: DSM2151”, “7” for “6”; design: dose 5 uM, timepoint 0, 0.75, 1.5, 3, 6, 9, 12 hours; details: 5 µM
[25] = as §1, with “the gut metagenome community of T-05 with ENA study accession number: PRJEB31790” for “Bacteroides fragilis strain: DSM2151”, “7” for “6”; design: dose 5 uM, timepoint 0, 0.75, 1.5, 3, 6, 9, 12 hours; details: 5 µM
[26] = as §2, with “the gut metagenome community of A-01 with ENA study accession number: PRJEB31790” for “Bifidobacterium longum strain: DSM20088”, “7” for “6”; design: dose 5 uM, timepoint 0, 0.75, 1.5, 3, 6, 9, 12 hours; details: 5 µM
[27] = as §2, with “the gut metagenome community of A-09 with ENA study accession number: PRJEB31790” for “Bifidobacterium longum strain: DSM20088”, “7” for “6”; design: dose 5 uM, timepoint 0, 0.75, 1.5, 3, 6, 9, 12 hours; details: 5 µM
[28] = as §2, with “the gut metagenome community of T-02 with ENA study accession number: PRJEB31790” for “Bifidobacterium longum strain: DSM20088”, “7” for “6”; design: dose 5 uM, timepoint 0, 0.75, 1.5, 3, 6, 9, 12 hours; details: 5 µM
[29] = as §2, with “the gut metagenome community of T-03 with ENA study accession number: PRJEB31790” for “Bifidobacterium longum strain: DSM20088”, “7” for “6”; design: dose 5 uM, timepoint 0, 0.75, 1.5, 3, 6, 9, 12 hours; details: 5 µM
[30] = as §2, with “the gut metagenome community of T-04 with ENA study accession number: PRJEB31790” for “Bifidobacterium longum strain: DSM20088”, “7” for “6”; design: dose 5 uM, timepoint 0, 0.75, 1.5, 3, 6, 9, 12 hours; details: 5 µM

CCOC(=O)C1=C(COCCN)NC(C)=C(C(=O)OC)C1c1ccccc1Cl (stereo not given) [AMLODIPINE]
Bacterial Biotransformation [1]: Compound NOT metabolized
Bacterial Biotransformation [2]: Compound NOT metabolized
Bacterial Biotransformation [3]: Compound NOT metabolized
Bacterial Biotransformation [4]: Compound NOT metabolized
Bacterial Biotransformation [5]: Compound NOT metabolized
Bacterial Biotransformation [6]: Compound NOT metabolized
Bacterial Biotransformation [7]: Compound NOT metabolized
Bacterial Biotransformation [8]: Compound NOT metabolized
Bacterial Biotransformation [9]: Compound NOT metabolized
Bacterial Biotransformation [10]: Compound NOT metabolized
Bacterial Biotransformation [11]: Compound NOT metabolized
Bacterial Biotransformation [12]: Compound NOT metabolized
Bacterial Biotransformation [13]: Compound NOT metabolized
Bacterial Biotransformation [14]: Compound NOT metabolized
Bacterial Biotransformation [15]: Compound NOT metabolized
Bacterial Biotransformation [16]: Compound NOT metabolized
Bacterial Biotransformation [17]: Compound metabolized
Bacterial Biotransformation [18]: Compound NOT metabolized
Bacterial Biotransformation [19]: Compound NOT metabolized
Bacterial Biotransformation [20]: Compound metabolized
Bacterial Biotransformation [21]: Compound NOT metabolized
Bacterial Biotransformation [22]: Compound NOT metabolized
Bacterial Biotransformation [23]: Compound NOT metabolized
Bacterial Biotransformation [24]: Compound NOT metabolized
Bacterial Biotransformation [25]: Compound NOT metabolized
Bacterial Biotransformation [26]: Compound NOT metabolized
Bacterial Biotransformation [27]: Compound NOT metabolized
Bacterial Biotransformation [28]: Compound NOT metabolized
Bacterial Biotransformation [29]: Compound NOT metabolized
Bacterial Biotransformation [30]: Compound NOT metabolized

CC(C)NCC(O)COc1ccc(CC(N)=O)cc1 (stereo not given) [ATENOLOL]
Bacterial Biotransformation [1]: Compound NOT metabolized
Bacterial Biotransformation [2]: Compound NOT metabolized
Bacterial Biotransformation [3]: Compound NOT metabolized
Bacterial Biotransformation [4]: Compound NOT metabolized
Bacterial Biotransformation [5]: Compound NOT metabolized
Bacterial Biotransformation [6]: Compound NOT metabolized
Bacterial Biotransformation [7]: Compound NOT metabolized
Bacterial Biotransformation [8]: Compound NOT metabolized
Bacterial Biotransformation [9]: Compound NOT metabolized
Bacterial Biotransformation [10]: Compound NOT metabolized
Bacterial Biotransformation [11]: Compound NOT metabolized
Bacterial Biotransformation [12]: Compound NOT metabolized
Bacterial Biotransformation [13]: Compound NOT metabolized
Bacterial Biotransformation [14]: Compound NOT metabolized
Bacterial Biotransformation [15]: Compound NOT metabolized
Bacterial Biotransformation [16]: Compound NOT metabolized
Bacterial Biotransformation [17]: Compound NOT metabolized
Bacterial Biotransformation [18]: Compound NOT metabolized
Bacterial Biotransformation [19]: Compound NOT metabolized
Bacterial Biotransformation [20]: Compound NOT metabolized
Bacterial Biotransformation [21]: Compound NOT metabolized
Bacterial Biotransformation [22]: Compound NOT metabolized
Bacterial Biotransformation [23]: Compound NOT metabolized
Bacterial Biotransformation [24]: Compound NOT metabolized
Bacterial Biotransformation [25]: Compound NOT metabolized
Bacterial Biotransformation [26]: Compound NOT metabolized
Bacterial Biotransformation [27]: Compound NOT metabolized
Bacterial Biotransformation [28]: Compound NOT metabolized
Bacterial Biotransformation [29]: Compound NOT metabolized
Bacterial Biotransformation [30]: Compound NOT metabolized

Cn1cnc([N+](=O)[O-])c1Sc1ncnc2nc[nH]c12 [AZATHIOPRINE]
Bacterial Biotransformation [1]: Compound metabolized
Bacterial Biotransformation [2]: Compound metabolized
Bacterial Biotransformation [3]: Compound metabolized
Bacterial Biotransformation [4]: Compound metabolized
Bacterial Biotransformation [5]: Compound metabolized
Bacterial Biotransformation [6]: Compound NOT metabolized
Bacterial Biotransformation [7]: Compound metabolized
Bacterial Biotransformation [8]: Compound metabolized
Bacterial Biotransformation [9]: Compound metabolized
Bacterial Biotransformation [10]: Compound metabolized
Bacterial Biotransformation [11]: Compound NOT metabolized
Bacterial Biotransformation [12]: Compound NOT metabolized
Bacterial Biotransformation [13]: Compound metabolized
Bacterial Biotransformation [14]: Compound metabolized
Bacterial Biotransformation [15]: Compound NOT metabolized
Bacterial Biotransformation [16]: Compound NOT metabolized
Bacterial Biotransformation [17]: Compound metabolized
Bacterial Biotransformation [18]: Compound NOT metabolized
Bacterial Biotransformation [19]: Compound metabolized
Bacterial Biotransformation [20]: Compound metabolized
Bacterial Biotransformation [21]: Compound metabolized
Bacterial Biotransformation [22]: Compound metabolized
Bacterial Biotransformation [23]: Compound NOT metabolized
Bacterial Biotransformation [24]: Compound NOT metabolized
Bacterial Biotransformation [25]: Compound metabolized
Bacterial Biotransformation [26]: Compound NOT metabolized
Bacterial Biotransformation [27]: Compound metabolized
Bacterial Biotransformation [28]: Compound NOT metabolized
Bacterial Biotransformation [29]: Compound metabolized
Bacterial Biotransformation [30]: Compound NOT metabolized
